Experimental data: publication PMC9329436, “Optimization of the 4-anilinoquin(az)oline scaffold as epidermal growth factor receptor (EGFR) inhibitors for chordoma utilizing a toxicology profiling assay platform” (Scientific Reports, 2022)
Where two headings read alike, the source gives them in different places.

Columns and labels:
Format in all cases: biochemical
[1] = target: T1, 320 wild-type protein kinases (Homo sapiens, UniProt Q9NZJ5); conditions: singlicate
T1 sequence (Q9NZJ5 30-1116): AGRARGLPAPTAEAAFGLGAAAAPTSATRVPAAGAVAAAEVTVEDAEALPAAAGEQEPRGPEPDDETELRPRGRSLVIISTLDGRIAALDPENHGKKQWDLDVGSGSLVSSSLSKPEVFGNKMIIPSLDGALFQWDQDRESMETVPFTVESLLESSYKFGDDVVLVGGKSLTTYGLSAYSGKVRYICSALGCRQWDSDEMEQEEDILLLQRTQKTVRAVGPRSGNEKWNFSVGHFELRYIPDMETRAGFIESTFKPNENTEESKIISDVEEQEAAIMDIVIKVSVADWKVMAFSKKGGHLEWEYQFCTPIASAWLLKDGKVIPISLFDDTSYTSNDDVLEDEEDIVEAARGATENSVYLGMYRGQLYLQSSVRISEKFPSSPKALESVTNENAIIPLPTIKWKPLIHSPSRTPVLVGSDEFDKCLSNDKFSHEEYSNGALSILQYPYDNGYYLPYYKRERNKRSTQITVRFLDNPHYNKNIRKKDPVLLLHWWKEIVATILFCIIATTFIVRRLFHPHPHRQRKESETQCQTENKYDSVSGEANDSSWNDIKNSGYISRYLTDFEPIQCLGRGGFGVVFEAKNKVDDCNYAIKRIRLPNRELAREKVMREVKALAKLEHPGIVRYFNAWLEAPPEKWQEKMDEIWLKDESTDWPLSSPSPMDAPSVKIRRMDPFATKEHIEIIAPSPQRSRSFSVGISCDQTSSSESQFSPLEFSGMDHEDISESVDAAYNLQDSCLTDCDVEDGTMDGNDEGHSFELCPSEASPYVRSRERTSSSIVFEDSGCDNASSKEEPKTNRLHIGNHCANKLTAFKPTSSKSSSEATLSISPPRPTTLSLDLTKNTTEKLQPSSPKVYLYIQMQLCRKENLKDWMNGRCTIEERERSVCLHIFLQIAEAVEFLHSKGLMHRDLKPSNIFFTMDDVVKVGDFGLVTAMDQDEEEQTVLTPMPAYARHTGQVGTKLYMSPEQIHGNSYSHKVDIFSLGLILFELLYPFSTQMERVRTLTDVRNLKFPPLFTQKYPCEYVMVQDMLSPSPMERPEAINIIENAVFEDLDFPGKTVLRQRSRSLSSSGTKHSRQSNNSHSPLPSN
Description: (§1) Table S4. Profiling of two compounds at two concentrations against 320 wild-type protein kinases; singlicate measurement; Residual activities (% of control).

[2] = target: 320 wild-type protein kinases (Homo sapiens, UniProt Q06187); conditions: BTK, singlicate
Chain of 320 wild-type protein kinases (Homo sapiens, UniProt Q06187) (Q06187 whole entry): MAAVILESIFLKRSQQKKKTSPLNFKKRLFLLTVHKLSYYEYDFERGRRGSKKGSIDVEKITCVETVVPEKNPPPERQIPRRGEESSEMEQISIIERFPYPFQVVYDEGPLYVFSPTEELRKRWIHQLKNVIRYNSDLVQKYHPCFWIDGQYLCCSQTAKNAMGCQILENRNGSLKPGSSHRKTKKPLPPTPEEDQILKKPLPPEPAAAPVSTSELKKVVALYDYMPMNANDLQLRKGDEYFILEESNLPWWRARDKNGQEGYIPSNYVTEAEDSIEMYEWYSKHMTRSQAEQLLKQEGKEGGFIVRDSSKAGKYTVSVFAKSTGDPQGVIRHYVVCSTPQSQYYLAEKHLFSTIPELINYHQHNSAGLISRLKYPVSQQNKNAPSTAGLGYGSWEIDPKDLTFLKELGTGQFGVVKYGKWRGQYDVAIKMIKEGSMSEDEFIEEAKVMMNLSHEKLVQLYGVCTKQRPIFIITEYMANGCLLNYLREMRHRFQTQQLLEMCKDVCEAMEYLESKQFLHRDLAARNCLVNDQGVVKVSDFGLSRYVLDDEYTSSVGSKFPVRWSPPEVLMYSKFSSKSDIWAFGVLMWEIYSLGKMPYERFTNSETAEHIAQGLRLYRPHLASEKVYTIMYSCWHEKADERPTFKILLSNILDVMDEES
Description: as §1

[3] = target: T2, 320 wild-type protein kinases (Homo sapiens, UniProt O14757); conditions: singlicate
T2 sequence (O14757 1-476): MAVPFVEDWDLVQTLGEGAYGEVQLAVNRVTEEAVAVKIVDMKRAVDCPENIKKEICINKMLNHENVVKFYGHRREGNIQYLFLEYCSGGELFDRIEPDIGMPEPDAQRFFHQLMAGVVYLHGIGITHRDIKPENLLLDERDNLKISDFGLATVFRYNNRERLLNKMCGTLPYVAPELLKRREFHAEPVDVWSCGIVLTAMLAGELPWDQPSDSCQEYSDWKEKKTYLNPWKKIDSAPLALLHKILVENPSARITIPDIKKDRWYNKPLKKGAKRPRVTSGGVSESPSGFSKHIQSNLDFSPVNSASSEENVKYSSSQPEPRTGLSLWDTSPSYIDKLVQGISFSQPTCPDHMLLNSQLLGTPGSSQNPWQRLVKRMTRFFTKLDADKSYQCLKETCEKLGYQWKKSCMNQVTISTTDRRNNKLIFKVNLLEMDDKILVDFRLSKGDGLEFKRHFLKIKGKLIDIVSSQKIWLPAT
Description: as §1

[4] = target: 320 wild-type protein kinases (Homo sapiens, UniProt P04629); conditions: kinase TRK-A, singlicate
Chain of 320 wild-type protein kinases (Homo sapiens, UniProt P04629) (P04629 33-796): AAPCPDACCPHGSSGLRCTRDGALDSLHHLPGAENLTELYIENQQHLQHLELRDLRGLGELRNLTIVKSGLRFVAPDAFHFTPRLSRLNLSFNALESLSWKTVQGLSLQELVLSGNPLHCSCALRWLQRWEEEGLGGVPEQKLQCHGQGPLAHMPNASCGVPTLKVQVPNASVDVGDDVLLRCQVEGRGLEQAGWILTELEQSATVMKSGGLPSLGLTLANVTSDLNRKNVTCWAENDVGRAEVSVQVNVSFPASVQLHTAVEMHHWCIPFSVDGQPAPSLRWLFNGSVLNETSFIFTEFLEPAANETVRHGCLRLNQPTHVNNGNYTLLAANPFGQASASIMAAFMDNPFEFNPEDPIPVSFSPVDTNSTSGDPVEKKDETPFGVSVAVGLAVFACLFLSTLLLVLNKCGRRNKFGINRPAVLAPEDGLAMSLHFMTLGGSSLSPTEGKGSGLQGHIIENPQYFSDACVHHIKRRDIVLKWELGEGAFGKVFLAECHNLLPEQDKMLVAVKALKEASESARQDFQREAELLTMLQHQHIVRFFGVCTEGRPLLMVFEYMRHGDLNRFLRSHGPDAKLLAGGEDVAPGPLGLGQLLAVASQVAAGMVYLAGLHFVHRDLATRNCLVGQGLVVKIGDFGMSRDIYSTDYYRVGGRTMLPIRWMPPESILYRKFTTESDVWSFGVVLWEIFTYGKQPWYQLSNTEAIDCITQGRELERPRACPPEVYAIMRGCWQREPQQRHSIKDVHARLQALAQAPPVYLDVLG
Description: as §1

[5] = target: T3, 320 wild-type protein kinases (Homo sapiens, UniProt Q96PF2); conditions: kinase TSK2, singlicate
T3 sequence (Q96PF2 1-358): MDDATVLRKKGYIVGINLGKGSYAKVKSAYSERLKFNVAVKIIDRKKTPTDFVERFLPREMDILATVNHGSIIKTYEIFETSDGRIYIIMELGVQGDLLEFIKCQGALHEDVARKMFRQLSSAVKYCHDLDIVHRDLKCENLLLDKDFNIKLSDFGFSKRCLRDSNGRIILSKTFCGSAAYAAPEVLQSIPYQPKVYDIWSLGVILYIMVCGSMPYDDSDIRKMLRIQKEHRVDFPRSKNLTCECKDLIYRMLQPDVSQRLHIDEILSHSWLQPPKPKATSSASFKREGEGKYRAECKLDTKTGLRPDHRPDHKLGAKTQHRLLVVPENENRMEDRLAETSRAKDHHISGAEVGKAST
Description: as §1

[6] = target: 320 wild-type protein kinases (Homo sapiens, UniProt Q15375); conditions: singlicate
Chain of 320 wild-type protein kinases (Homo sapiens, UniProt Q15375) (Q15375 28-998): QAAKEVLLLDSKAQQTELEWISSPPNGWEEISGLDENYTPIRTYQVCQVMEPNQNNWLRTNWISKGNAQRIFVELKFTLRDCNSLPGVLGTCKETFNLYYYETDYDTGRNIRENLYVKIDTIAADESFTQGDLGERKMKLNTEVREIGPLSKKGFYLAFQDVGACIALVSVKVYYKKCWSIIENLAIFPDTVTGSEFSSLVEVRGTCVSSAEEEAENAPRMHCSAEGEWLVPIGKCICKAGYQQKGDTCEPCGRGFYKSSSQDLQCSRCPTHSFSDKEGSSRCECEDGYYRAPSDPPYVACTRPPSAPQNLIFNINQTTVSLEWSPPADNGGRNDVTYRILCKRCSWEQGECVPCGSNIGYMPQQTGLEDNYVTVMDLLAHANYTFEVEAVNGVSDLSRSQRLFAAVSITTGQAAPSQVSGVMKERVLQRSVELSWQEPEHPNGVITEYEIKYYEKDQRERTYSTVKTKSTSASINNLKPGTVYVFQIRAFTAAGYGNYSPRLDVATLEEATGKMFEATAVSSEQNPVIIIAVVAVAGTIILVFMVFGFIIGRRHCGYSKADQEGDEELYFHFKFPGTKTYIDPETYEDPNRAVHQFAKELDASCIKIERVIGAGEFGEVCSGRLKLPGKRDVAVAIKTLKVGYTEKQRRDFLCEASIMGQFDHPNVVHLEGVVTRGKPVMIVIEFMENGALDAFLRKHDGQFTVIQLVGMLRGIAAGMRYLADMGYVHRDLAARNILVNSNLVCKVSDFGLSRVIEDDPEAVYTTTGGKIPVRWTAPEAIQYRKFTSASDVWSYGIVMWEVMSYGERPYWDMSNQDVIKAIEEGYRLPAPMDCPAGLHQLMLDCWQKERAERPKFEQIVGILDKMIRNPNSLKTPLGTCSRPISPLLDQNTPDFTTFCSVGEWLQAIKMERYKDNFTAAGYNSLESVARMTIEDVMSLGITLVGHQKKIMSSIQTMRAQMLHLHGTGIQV
Description: as §1

Structure (SMILES)	Residual activity ([1]; EIF2AK3, 1.0E-06 M)	Residual activity ([1]; EIF2AK3, 1.0E-07 M)	Residual activity ([2]; 1.0E-06 M)	Residual activity ([2]; 1.0E-07 M)	Residual activity ([3]; CHK1, 1.0E-06 M)	Residual activity ([3]; CHK1, 1.0E-07 M)	Residual activity, TRK-A ([4]; assay conc. 1.0E-06 M)	Residual activity, TRK-A ([4]; assay conc. 1.0E-07 M)	Residual activity, TSK2 ([5]; assay conc. 1.0E-06 M)	Residual activity, TSK2 ([5]; assay conc. 1.0E-07 M)	Residual activity ([6]; EPHA7, 1.0E-06 M)	Residual activity ([6]; EPHA7, 1.0E-07 M)
C#Cc1cc(Nc2ncnc3cc(I)ccc23)ccc1Cl [Compound 41]	95 % of control	86 % of control	100 % of control	103 % of control	85 % of control	94 % of control	107 % of control	100 % of control	123 % of control	113 % of control	94 % of control	85 % of control
C#Cc1cc(Nc2ncnc3cc(OC)c(OC)cc23)ccc1Cl [Compound 45]	82 % of control	90 % of control	65 % of control	100 % of control	74 % of control	94 % of control	87 % of control	106 % of control	331 % of control	109 % of control	58 % of control	84 % of control
